Data: paper PMC9482650, “Quantitative fragmentomics allow affinity mapping of interactomes” (Nature Communications, 2022)
Where a chain is given by its changes, count along the chain named. Read-outs that look alike come from different tables or passages of the source. Ends that are not written are not given here.

Assays:
Assay type in all cases: binding
[1] = target: DLG2_2 PDZ (Homo sapiens, UniProt Q15700); assay: Holdup assay
[2] = target: T1, LIN7B PDZ (Homo sapiens, UniProt Q9HAP6); assay: Holdup assay
T1 sequence (Q9HAP6 93-175 limits assumed): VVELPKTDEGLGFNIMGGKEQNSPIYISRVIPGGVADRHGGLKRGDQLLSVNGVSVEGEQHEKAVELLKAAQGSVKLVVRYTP

[3] = target: MAGI2_5 PDZ (Homo sapiens, UniProt Q86UL8); assay: Holdup assay
Sequence of MAGI2_5 PDZ (Q86UL8 920-1010 limits assumed): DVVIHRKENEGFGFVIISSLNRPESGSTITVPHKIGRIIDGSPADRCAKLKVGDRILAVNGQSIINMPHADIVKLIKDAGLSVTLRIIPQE

[4] = target: T2, DLG3_3 PDZ (Homo sapiens, UniProt Q92796); assay: Holdup assay
T2 sequence (Q92796 379-465 limits assumed): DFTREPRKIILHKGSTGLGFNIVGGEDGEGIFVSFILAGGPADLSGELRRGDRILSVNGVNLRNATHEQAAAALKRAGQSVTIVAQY

[5] = target: T3, PDZD7_3 PDZ (Homo sapiens, UniProt Q9H5P4); assay: Holdup assay
T3 sequence (Q9H5P4 862-934 limits assumed): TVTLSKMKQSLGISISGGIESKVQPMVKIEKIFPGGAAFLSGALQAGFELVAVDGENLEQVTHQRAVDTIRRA

[6] = target: T4, SNTB1 PDZ (Homo sapiens, UniProt Q13884); assay: Holdup assay
T4 sequence (Q13884 112-195 limits assumed): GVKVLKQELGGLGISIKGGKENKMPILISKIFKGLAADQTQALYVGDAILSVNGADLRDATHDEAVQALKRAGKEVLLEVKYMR

[7] = target: T5, SNTA1 PDZ (Homo sapiens, UniProt Q13424); assay: Holdup assay
T5 sequence (Q13424 87-170 limits assumed): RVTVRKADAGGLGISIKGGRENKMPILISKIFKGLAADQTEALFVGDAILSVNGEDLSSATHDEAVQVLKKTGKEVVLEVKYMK

[8] = target: T6, NHERF3_1 PDZ (Homo sapiens, UniProt Q5T2W1); assay: Holdup assay
T6 sequence (Q5T2W1 9-90 limits assumed): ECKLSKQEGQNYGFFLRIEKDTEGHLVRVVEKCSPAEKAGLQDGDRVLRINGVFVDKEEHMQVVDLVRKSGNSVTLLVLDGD

[9] = target: T7, ARHGEF12 PDZ (Homo sapiens, UniProt Q9NZN5); assay: Holdup assay
T7 sequence (Q9NZN5 72-151 limits assumed): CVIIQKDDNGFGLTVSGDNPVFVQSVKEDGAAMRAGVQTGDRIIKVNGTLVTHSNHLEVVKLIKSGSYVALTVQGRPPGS

[10] = target: DLG4_1 PDZ (Homo sapiens, UniProt P78352); assay: Holdup assay
Sequence of DLG4_1 PDZ (P78352 65-151): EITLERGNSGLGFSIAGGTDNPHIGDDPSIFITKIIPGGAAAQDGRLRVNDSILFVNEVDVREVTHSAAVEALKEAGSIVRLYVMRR

[11] = target: T8, PDZRN3_1 PDZ (Homo sapiens, UniProt Q9UPQ7); assay: Holdup assay
T8 sequence (Q9UPQ7 249-339 limits assumed): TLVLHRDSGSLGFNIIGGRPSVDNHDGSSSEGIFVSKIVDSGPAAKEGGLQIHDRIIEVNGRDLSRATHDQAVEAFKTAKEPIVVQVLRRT

[12] = target: T9, SNTG1 PDZ (Homo sapiens, UniProt Q9NSN8); assay: Holdup assay
T9 sequence (Q9NSN8 57-140 limits assumed): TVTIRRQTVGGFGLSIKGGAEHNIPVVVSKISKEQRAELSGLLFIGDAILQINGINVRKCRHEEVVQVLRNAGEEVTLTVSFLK

[13] = target: T10, SNTG2 PDZ (Homo sapiens, UniProt Q9NY99); assay: Holdup assay
T10 sequence (Q9NY99 73-156 limits assumed): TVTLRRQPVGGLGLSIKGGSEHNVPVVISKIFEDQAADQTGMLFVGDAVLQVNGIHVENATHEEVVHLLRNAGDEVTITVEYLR

[14] = target: DLG1_3 PDZ (Homo sapiens, UniProt Q12959); assay: Holdup assay
[15] = target: T11, PDZD2_2 PDZ (Homo sapiens, UniProt O15018); assay: Holdup assay
T11 sequence (O15018 334-419 limits assumed): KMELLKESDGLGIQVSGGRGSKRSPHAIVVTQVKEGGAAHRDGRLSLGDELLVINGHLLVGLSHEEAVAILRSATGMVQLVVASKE

[16] = target: T12, SCRIB_3 PDZ (Homo sapiens, UniProt Q14160); assay: Holdup assay
T12 sequence (Q14160 1004-1093 limits assumed): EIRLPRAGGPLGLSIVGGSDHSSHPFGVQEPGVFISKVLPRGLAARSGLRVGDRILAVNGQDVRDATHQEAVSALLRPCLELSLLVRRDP

[17] = target: SCRIB_1 PDZ (Homo sapiens, UniProt Q14160); assay: Holdup assay
Sequence of SCRIB_1 PDZ (Q14160 728-815 limits assumed): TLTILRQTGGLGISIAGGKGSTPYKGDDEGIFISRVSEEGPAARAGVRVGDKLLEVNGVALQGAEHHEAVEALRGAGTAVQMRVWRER

[18] = target: T13, MAST2 PDZ (Homo sapiens, UniProt Q6P0Q8); assay: biochemical; settings: composite holdup affinity; 0.00=below quantification threshold; read-out: COMP pKd (converted)
T13 sequence (Q6P0Q8 1104-1192 limits assumed): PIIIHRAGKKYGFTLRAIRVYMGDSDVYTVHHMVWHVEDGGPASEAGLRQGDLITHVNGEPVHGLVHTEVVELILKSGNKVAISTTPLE

[19] = target: T14, LIN7C PDZ (Homo sapiens, UniProt Q9NUP9); assay: Holdup assay
T14 sequence (Q9NUP9 93-175 limits assumed): T1 sequence (Q9HAP6 93-175 limits assumed) with D8E, V30I, V35I, Q60H, S74K

[20] = target: MAGI2_4 PDZ (Homo sapiens, UniProt Q86UL8); assay: Holdup assay
Sequence of MAGI2_4 PDZ (Q86UL8 778-860 limits assumed): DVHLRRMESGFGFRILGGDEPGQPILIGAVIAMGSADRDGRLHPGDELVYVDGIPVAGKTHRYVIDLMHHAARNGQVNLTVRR

[21] = target: T15, DLG2_3 PDZ (Homo sapiens, UniProt Q15700); assay: Holdup assay
T15 sequence (Q15700 421-501 limits assumed): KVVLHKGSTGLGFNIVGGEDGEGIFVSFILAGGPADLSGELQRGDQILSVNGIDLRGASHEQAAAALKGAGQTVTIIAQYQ

[22] = target: MAGI1_2 PDZ (Homo sapiens, UniProt Q96QZ7); assay: biochemical
Sequence of MAGI1_2 PDZ (Q96QZ7 472-554 limits assumed): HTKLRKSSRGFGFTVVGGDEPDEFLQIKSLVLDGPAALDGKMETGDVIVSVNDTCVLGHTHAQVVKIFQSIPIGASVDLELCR

[23] = target: DLG1_1 PDZ (Homo sapiens, UniProt Q12959); assay: Holdup assay
[24] = target: NOS1 PDZ (Homo sapiens, UniProt P29475); assay: Holdup assay
Sequence of NOS1 PDZ (P29475 17-99 limits assumed): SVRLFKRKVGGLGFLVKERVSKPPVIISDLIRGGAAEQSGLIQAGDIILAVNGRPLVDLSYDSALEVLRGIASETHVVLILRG

[25] = target: MAGI3_2 PDZ (Homo sapiens, UniProt Q5TCQ9); assay: Holdup assay
Sequence of MAGI3_2 PDZ (Q5TCQ9 410-492 limits assumed): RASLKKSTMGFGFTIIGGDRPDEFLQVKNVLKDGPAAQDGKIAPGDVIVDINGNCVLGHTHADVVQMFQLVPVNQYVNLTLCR

[26] = composite holdup affinity, 0.00=below quantification threshold, read-out: COMP pKd (converted)

Sequence of DLG2_2 PDZ (Q15700 193-279 limits assumed): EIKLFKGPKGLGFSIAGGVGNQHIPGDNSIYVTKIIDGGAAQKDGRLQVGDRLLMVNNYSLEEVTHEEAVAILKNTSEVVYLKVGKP

CC(C)C[C@H](NC(=O)[C@@H](N)CCCNC(=N)N)C(=O)N[C@@H](CCC(N)=O)C(=O)N[C@@H](CCCNC(=N)N)C(=O)N[C@@H](CCCNC(=N)N)C(=O)N[C@@H](CCCNC(=N)N)C(=O)N[C@@H](CCC(=O)O)C(=O)N[C@H](C(=O)N[C@@H](CCC(N)=O)C(=O)N[C@H](C(=O)O)C(C)C)[C@@H](C)O [HPV18-E6]
Kd [1]: 6.46 µM | Kd [2]: 263 µM | Kd [3]: 166 µM | Kd [4]: 3.63 µM | Kd [5]: 105 µM | Kd [6]: 5.89 µM | Kd [7]: 20 µM | Kd [8]: 89.1 µM | Kd [9]: 123 µM | Kd [10]: 7.76 µM | Kd [11]: 15.1 µM | Kd [12]: 117 µM | Kd [13]: 93.3 µM | Kd [14]: 9.55 µM | Kd [15]: 437 µM | Kd [16]: 14.5 µM | Kd [17]: 55 µM | Kd [18]: 16.6 µM | Kd [19]: 67.6 µM | Kd [20]: 52.5 µM | Kd [21]: 8.71 µM | Kd [22]: 1.07 µM | Kd [23]: 5.5 µM | Kd [24]: 195 µM | Kd [25]: 2.75 µM

SKPTRRETEV [HPV35-E6]
Kd [1, 26]: 5.37 µM | Kd [2, 26]: 324 µM | Kd [3, 26]: 66.1 µM | Kd [4, 26]: 6.61 µM | Kd [5, 26]: 50.1 µM | Kd [6, 26]: 20.9 µM | Kd [7, 26]: 14.1 µM | Kd [8, 26]: 91.2 µM | Kd [9, 26]: 87.1 µM | Kd [10, 26]: 8.13 µM | Kd [11, 26]: 12.9 µM | Kd [12, 26]: 49 µM | Kd [13, 26]: 112 µM | Kd [14, 26]: 17 µM | Kd [15, 26]: 166 µM | Kd [16, 26]: 12.9 µM | Kd [17, 26]: 27.5 µM | Kd [18]: 8.13 µM | Kd [19, 26]: 174 µM | Kd [20, 26]: 45.7 µM | Kd [21, 26]: 4.9 µM | Kd [22, 26]: 7.41 µM | Kd [23, 26]: 9.55 µM | Kd [24, 26]: 182 µM | Kd [25, 26]: 4.07 µM

SRRPRTETQV [HPV31-E6]
Kd [1, 26]: 4.27 µM | Kd [2, 26]: 209 µM | Kd [3, 26]: 129 µM | Kd [4, 26]: 7.94 µM | Kd [5, 26]: 195 µM | Kd [6, 26]: 70.8 µM | Kd [7, 26]: 51.3 µM | Kd [8, 26]: 47.9 µM | Kd [9, 26]: 138 µM | Kd [10, 26]: 9.55 µM | Kd [11, 26]: 81.3 µM | Kd [12, 26]: 58.9 µM | Kd [13, 26]: 83.2 µM | Kd [14, 26]: 25.1 µM | Kd [15, 26]: 200 µM | Kd [16, 26]: 27.5 µM | Kd [17, 26]: 25.1 µM | Kd [18]: 5.89 µM | Kd [19, 26]: 117 µM | Kd [20, 26]: 33.1 µM | Kd [21, 26]: 7.94 µM | Kd [22, 26]: 2.88 µM | Kd [23, 26]: 6.92 µM | Kd [24, 26]: 123 µM | Kd [25, 26]: 1.35 µM
